Reference: patent US8920793B2, “Biodegradable PAOX polymer particle with cationic property” (Industrial Cooperation Foundation Chonbuk National …, priority 2011, dated 2014)

Assays:
[1] = test system: acute liver failure induced by acetaminophen (APAP); test: ALT assay in mouse models of APAP-induced acute liver failure; type: in vivo; conditions: 10 ug of free PEN, 1 hour before APAP
Procedure: On the assumption that the PAOX polymers rapidly deliver drugs to the cytoplasm due to high hydrolysis rate and proton sponge effects, which leads to more rapid treatment, mouse models of acute liver failure (ALF) were used as experimental models, and pentoxifylline (PEN) was used as a drug model.
In order to investigate the cytotoxicity of PAOX-PEN particles prepared by the method as described in the above section 7, a tetrazolium-based colorimetric MTT assay was performed. Moreover, an alanine transaminase (ALT) assay, which is mainly used for evaluation of liver functions, was performed to evaluate the effect of PAOX-PEN particles in terms of the amount of drug loaded in PAOX-PEN particles and daily dosages.
6-week-old BALB/c female mice were used for the experiments and classified into each group. The PAOX-PEN particles were dispersed in 10 mg/mL (PBS), and each of 50 μL, 100 μL, and 200 μL of the resulting solution was injected into mouse tail veins. In the case of free PEN, the drug solution was administered with the calculation of dose and, only PBS was administered to the negative control groups. After 1 hour, 200 μL of APAP in a concentration of 25 mg/mL was injected intraperitoneally to induce acute liver failure. The mice were sacrificed 10 hours later, and blood was taken from the heart. […]

[2] = oral intake; cited from earlier work
RAW 264.7 cells = test: Catalase delivery: PMA-induced hydrogen peroxide, DCFH-DA fluorescence by flow cytometry; type: cell-based; conditions: pretreatment 12 hours, then PMA stimulation
Procedure: To investigate the ability of PAOX particles to deliver protein drugs, catalase was used as a model protein drug. RAW 264.7 cells (1×10^6 cells) were pretreated with catalase, catalase-loaded PAOX particles, catalase-loaded PLGA particles or empty PAOX particles for 12 hours and then stimulated with 1 μg of PMA (phorbol-12-myristate-13-acetate) to induce the production of hydrogen peroxide. PMA was used to stimulate cells for the production of reactive oxygen species including hydrogen peroxide. Then, DCFH-DA (dichlorofluorescin-diacetate) was added to each well and incubated for 30 minutes. The efficacy of PAOX particles to deliver catalase to cells was evaluated by measuring the intensity of the fluorescence produced by DCFH-DA with a flow cytometry caliber (Becton Dickinson, US).

Q: Which ALT reduction effect [1] does the source give for `CC(=O)CCCCn1c(=O)c2c(ncn2C)n(C)c1=O` [free PEN, pentoxifylline] here?
A: Its ALT reduction effect is “no ALT reduction effects”.

Q: With `OCC1CCC(CO)CC1` (stereo not drawn) [1,4-cyclohexanedimethanol] as the molecule, how does the LD50 [2] read?
A: Its LD50 is 3,200 mg/kg.

B1: catalase (protein, UniProt P00432 2-527, looked up)
Catalase: ADNRDPASDQMKHWKEQRAAQKPDVLTTGGGNPVGDKLNSLTVGPRGPLLVQDVVFTDEMAHFDRERIPERVVHAKGAGAFGYFEVTHDITRYSKAKVFEHIGKRTPIAVRFSTVAGESGSADTVRDPRGFAVKFYTEDGNWDLVGNNTPIFFIRDALLFPSFIHSQKRNPQTHLKDPDMVWDFWSLRPESLHQVSFLFSDRGIPDGHRHMNGYGSHTFKLVNANGEAVYCKFHYKTDQGIKNLSVEDAARLAHEDPDYGLRDLFNAIATGNYPSWTLYIQVMTFSEAEIFPFNPFDLTKVWPHGDYPLIPVGKLVLNRNPVNYFAEVEQLAFDPSNMPPGIEPSPDKMLQGRLFAYPDTHRHRLGPNYLQIPVNCPYRARVANYQRDGPMCMMDNQGGAPNYYPNSFSAPEHQPSALEHRTHFSGDVQRFNSANDDNVTQVRTFYLKVLNEEQRKRLCENIAGHLKDAQLFIQKKAVKNFSDVHPEYGSRIQALLDKYNEEKPKNAVHTYVQHGSHLSAREKANL
Q: Which “inhibitory effect on PMA-induced fluorescence” value (RAW 264.7 cells) does the source give for B1 here?
A: Its value is “no inhibitory effects”.
